Results: ChEMBL document CHEMBL1201862, “PubChem BioAssay data set” (2004)
Activity calls are given as the source filed them.

Columns and labels:
BJ [1] = test: cells; format: functional, cell-based; settings: Homo sapiens
[2] = molecular target: T1, Heat shock factor protein 1 (Mus musculus, UniProt P38532); test: enhancement of HSF1-driven luciferase signal – cell-based, NIH3T3, luminescence, dose retest, confirmation (AID 435004); format: functional;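 also: stress induced by proteasome inhibitor MG132 added 30 min after compound; luciferase reporter driven by HSF1 response element in NIH3T3 cells; actives raise luminescence as potentiators of the MG132 stress response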
T1 sequence (P38532 whole entry): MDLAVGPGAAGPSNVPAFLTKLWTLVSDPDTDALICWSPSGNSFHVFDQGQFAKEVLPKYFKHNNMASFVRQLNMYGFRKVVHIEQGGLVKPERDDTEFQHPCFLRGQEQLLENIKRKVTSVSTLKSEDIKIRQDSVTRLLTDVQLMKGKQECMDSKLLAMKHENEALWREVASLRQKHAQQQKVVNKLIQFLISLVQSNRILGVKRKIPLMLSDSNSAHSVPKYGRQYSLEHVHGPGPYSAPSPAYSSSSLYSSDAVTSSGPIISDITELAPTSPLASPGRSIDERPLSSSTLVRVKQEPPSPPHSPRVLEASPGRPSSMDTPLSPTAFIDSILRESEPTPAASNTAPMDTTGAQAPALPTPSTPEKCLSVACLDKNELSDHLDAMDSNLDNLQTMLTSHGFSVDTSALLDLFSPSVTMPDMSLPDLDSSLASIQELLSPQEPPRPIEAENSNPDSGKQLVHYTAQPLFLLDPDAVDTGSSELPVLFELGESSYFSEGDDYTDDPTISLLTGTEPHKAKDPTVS

BJ [3] = test: BJ-TERT fibroblast viability loss – cell-based, RAS-independent, luminescence, dose response (AID 1933); format: functional; settings: Homo sapiens
INS1 = test: INS-1E survival protection against cytokine death – cell-based, luminescence, retest, dose response (AID 449756); format: functional; settings: Rattus norvegicus;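 also: cell death triggered by IL-1 beta plus TNF-alpha plus IFN-gamma mixture; protective hits raise ATP signal compared with cytokine alone wells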
[4] = DRD fibroblast viability loss – cell-based, non-viral oncogenic, luminescence, dose response (AID 1934); format: functional; settings: Homo sapiens
BJ [5] = test: BJ-TERT-LT-ST fibroblast viability loss – cell-based, RAS-independent, luminescence, dose response (AID 1935); format: functional; settings: Homo sapiens;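 also: BJ fibroblasts immortalized with TERT plus LT and ST oncogenes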
[6] = tested on: Streptococcus sp. 'group A'; test: Streptococcus pyogenes SK(-)GAS viability under kanamycin – luminescence, BacTiterGlo, confirmation, counter-screen for streptokinase expression inhibitor project, dose response (AID 1900); format: functional, organism-based
[7] = THP-1 cell cytotoxicity, dose response, cytotoxicity control for non-replicating M. tuberculosis project (AID 489025); format: functional
cells = format: functional
Streptococcus = test: GAS UMAA2166 growth inhibition – luminescence, BacTiterGlo, counter-screen for streptokinase expression inhibitor project, dose response (AID 1915); format: functional, organism-based;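 also: potency for reduction of bacterial viability or growth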
Genome polyprotein = Genome polyprotein (dengue virus type 2, UniProt P29990); test: flavivirus cap methylation enzyme inhibition – biochemical, confirmation dose response, primary screen (AID 588689); format: functional
[8] = molecular target: T2, High affinity choline transporter 1 (Homo sapiens, UniProt Q9GZV3); test: human choline transporter blockers, potency – cell-based, 5-point CRC, membrane potential dye, dose response (AID 504840); format: functional
T2 sequence (Q9GZV3 whole entry): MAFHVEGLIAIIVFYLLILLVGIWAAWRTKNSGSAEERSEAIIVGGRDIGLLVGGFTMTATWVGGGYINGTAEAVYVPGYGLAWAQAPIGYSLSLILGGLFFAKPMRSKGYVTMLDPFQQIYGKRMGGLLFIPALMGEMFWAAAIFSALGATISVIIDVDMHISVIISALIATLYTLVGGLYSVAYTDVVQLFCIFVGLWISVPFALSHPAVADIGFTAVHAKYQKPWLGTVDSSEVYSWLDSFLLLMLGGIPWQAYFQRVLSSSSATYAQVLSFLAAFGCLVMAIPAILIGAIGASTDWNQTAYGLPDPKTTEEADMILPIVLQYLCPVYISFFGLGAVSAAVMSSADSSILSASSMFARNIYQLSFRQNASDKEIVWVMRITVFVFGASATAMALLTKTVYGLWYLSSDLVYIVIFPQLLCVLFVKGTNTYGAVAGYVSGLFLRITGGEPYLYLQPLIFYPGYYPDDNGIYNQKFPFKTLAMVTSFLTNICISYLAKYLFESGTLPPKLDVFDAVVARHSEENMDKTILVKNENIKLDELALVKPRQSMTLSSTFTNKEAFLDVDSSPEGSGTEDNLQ

[9] = luciferase reporter signal suppression in cells – H4 neuroglioma cells, luminescence, dose response (AID 1990); format: functional, cell-based
[10] = molecular target: T3, DNA repair protein RAD52 homolog (Homo sapiens, UniProt P43351); format: functional, biochemical
T3 sequence (P43351 whole entry): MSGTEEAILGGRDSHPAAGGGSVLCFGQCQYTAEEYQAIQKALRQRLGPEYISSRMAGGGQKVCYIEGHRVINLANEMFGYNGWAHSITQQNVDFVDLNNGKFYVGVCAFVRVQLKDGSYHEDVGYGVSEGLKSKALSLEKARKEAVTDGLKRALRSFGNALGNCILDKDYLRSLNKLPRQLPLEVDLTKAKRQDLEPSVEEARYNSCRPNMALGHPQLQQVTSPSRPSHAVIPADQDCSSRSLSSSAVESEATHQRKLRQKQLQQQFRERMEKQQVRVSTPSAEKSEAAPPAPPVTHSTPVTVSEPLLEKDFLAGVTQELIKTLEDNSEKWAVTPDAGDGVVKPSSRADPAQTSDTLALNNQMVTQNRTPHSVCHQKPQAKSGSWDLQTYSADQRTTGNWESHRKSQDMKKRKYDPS

[11] = loss of viability in HepG2 cells – cell-based, CellTiter-Glo, cherry-picked, cytotoxicity control for Shn3 inhibitor project, dose response (AID 624134); format: functional
[12] = reduction of Shn3 3'UTR-driven luciferase in osteoblasts – cell-based, Clone20 osteoblasts, firefly luciferase, cherry-picked, dose response (AID 624132); format: functional;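 also: firefly luciferase luminescence from reporter carrying the Shn3 3'UTR in osteoblasts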
[13] = NIH3T3 cell viability loss – ATP luminescence, mouse fibroblasts, counter-screen, dose response (AID 2010); format: functional, cell-based;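 also: cells exposed to compound for about 90 hours before reading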
[14] = Luminescence Cell-Based Dose Response HTS to Identify Inhibitors of 5'UTR Stem-Loop Driven Prion Protein mRNA Translation in H4 Neuroglioblastoma Cells. [Related pubchem assays: 1827 (Project Summary), 1813 (Primary HTS)]; format: functional
[15] = non-specific 3'UTR reporter inhibition in Clone20-Shn3RL – cell-based, Renilla luciferase, cherry-picked, counter-screen for Shn3 inhibitor project, dose response (AID 624133); format: functional
[16] = alpha-synuclein stem-loop luciferase translation blockers – H4 neuroglioma cells, luminescence, confirmation (AID 1988); format: functional, cell-based
[17] = Trypanosoma cruzi growth suppression in host cells – NIH3T3 host cells, beta-gal luminescence, confirmation (AID 2044); format: functional, cell-based;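 also: intracellular parasites grown in NIH/3T3 mouse fibroblasts as host cells; luminescent beta-galactosidase reporter signal from transgenic T. cruzi replicating inside host cells; inhibitors lower the luminescence signal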
[18] = HEK-293T viability loss after treatment – luminescence, T-cell screen hits, cytotoxicity control for TCR NF-kB inhibitor project, dose response (AID 489026); format: functional, cell-based;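 also: cells exposed to compound about 14 hours before the viability readout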
[19] = A549 cell cytotoxicity, dose response, cytotoxicity control, plate reader, cherry-pick, antagonist series (AID 743412); format: functional, cell-based
[20] = toxicity toward HepG2 liver cells – cell-based, plate reader, cherry-pick, antagonist series, cytotoxicity control, dose response (AID 743416); format: functional
[21] = blockers of bursicon-stimulated LGR2 cAMP reporter – cell-based, HEK293, CRE-luciferase reporter, cherry pick, set 2, dose response (AID 743343); format: functional;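 also: transfected cells were stimulated with diluted bursicon conditioned medium after compound addition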
[22] = blockade of melanocortin 4 receptor signaling – cell-based, plate reader, cherry pick, counter-screen for LGR2 antagonist project, dose response (AID 743444); format: functional;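 also: transfected HEK 293 cells stimulated with alpha-MSH peptide; potency of inhibitors of the alpha-MSH evoked signal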
[23] = A Cell Based Secondary Assay To Explore Cytotoxicity of Compounds that Sensitize Mycobacterium Tuberculosis to Beta-Lactam Antibiotics.; format: functional
[24] = molecular target: T4, Carboxy-terminal domain RNA polymerase II polypeptide A small phosphatase 1 (Homo sapiens, UniProt Q9GZU7); test: CTDSP1 inhibitors, concentration-response, biochemical, absorbance readout, ultra-high-throughput screen actives (AID 540297); format: functional
T4 sequence (Q9GZU7 whole entry): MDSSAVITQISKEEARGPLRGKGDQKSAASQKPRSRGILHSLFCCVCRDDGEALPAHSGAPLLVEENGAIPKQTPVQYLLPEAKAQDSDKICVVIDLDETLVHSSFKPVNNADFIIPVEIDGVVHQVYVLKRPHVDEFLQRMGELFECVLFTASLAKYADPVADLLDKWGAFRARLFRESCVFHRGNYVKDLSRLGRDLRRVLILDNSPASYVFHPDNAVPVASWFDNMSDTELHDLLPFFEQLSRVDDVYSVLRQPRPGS

[25] = molecular target: T5, Rac GTPase-activating protein 1 (Homo sapiens, UniProt Q9H0H5); test: blockers of MgcRacGAP-driven Rac1 GTP hydrolysis – biochemical, ADP Hunter fluorescence, primary and confirmatory, confirmation (AID 624330); format: functional
T5 sequence (Q9H0H5 whole entry): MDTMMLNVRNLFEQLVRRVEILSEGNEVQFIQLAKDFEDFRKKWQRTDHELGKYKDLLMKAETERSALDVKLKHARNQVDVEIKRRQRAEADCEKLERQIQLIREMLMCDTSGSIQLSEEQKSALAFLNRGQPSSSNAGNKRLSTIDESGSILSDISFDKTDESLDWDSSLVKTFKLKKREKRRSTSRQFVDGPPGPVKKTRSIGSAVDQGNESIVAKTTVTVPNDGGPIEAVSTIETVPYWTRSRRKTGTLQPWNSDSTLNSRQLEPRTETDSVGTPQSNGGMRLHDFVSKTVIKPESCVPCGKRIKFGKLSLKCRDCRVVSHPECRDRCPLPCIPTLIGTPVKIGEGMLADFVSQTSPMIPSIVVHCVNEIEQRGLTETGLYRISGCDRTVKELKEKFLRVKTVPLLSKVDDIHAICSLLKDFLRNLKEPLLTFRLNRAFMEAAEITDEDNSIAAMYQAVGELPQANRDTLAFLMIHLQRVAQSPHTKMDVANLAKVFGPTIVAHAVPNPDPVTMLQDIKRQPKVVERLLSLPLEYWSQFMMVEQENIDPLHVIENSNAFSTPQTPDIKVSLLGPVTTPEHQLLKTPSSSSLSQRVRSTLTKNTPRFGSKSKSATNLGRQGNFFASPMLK

[26] = blockers of HIV-1 ZM109 envelope-driven cell-cell fusion – HeLa effector, CEM target cells, luciferase, cherry-pick, dose response (AID 652058); format: functional, cell-based;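 also: luciferase signal from HIV-1 Env mediated cell-cell fusion of effector and target cells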
[27] = HIV-1 AD8 envelope cell-cell fusion blockers – cherry-pick, dose response (AID 652062); format: functional, cell-based;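 also: luciferase signal from cell-cell fusion driven by HIV-1 clade B AD8 Env; potency is for inhibitors of fusion seen as a drop in luminescence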

Chain of Genome polyprotein (P29990 2492-3391 limits assumed): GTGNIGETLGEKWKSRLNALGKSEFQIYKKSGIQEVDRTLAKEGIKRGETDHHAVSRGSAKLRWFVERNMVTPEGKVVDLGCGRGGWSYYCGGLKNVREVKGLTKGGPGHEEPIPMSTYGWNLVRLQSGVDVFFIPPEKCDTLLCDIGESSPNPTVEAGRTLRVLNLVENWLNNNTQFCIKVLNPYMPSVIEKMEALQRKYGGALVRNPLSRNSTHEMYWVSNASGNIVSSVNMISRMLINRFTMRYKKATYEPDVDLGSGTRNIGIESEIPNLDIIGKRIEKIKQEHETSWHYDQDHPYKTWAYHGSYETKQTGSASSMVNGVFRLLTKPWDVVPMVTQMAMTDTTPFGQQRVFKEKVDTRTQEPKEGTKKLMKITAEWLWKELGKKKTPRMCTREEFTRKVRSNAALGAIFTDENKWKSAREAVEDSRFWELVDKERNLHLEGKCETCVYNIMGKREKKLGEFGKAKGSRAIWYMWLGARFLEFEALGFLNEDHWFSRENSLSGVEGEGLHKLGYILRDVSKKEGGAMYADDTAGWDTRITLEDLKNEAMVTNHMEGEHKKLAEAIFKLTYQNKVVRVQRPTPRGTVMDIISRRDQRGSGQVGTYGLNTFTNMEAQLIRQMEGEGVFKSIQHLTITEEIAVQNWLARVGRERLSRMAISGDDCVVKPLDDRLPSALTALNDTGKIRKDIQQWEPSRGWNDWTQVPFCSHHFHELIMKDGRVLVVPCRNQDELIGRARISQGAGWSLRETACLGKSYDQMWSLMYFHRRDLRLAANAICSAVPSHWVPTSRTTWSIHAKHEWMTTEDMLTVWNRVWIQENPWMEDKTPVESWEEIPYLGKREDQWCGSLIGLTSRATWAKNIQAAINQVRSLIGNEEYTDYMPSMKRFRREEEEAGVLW

SMILES: O=C1N=C(Nc2nc3ccccc3[nH]2)c2ccccc21
- EC50 (BJ [1]): 24.8 µM (inconclusive)
- EC50 [2]: 0.987 µM (inconclusive)
- EC50 (BJ [3]): 12.5 µM (active)
- AC50 (INS1): 3 µM (active)
- EC50 [4]: 14.9 µM (active)
- EC50 (BJ [5]): 19.3 µM (active)

SMILES: Cc1ccccc1OCCCCc1c(C)n[nH]c1C
- EC50 [6]: 9.02 µM (active)
- CC50 [7]: > 40 µM (active)
- IC50 (cells): 7 µM (active)
- EC50 (Streptococcus): 19 µM (active)

SMILES: COc1cc(/C=C2\SC(NS(=O)(=O)Cc3ccccc3)=NC2=O)c([N+](=O)[O-])cc1OC
- IC50 (Genome polyprotein): 55.8 µM (active)
- IC50 [8]: 9.12 µM (active)

SMILES: CCOC(=O)c1c(CSc2ccc(CC)cc2)oc2ccc(O)c(CN(C)C)c12
- EC50 [9]: > 120 µM (not active)
- AC50 [10]: 15.3 µM (active)
- AC50 [11]: 30.8 µM (active)
- AC50 [12]: 3.05 µM (active)
- EC50 [13]: > 30 µM (not active)
- EC50 [14]: > 120 µM (not active)
- AC50 [15]: 14.1 µM (active)
- EC50 [16]: > 120 µM (not active)
- EC50 [17]: 2.81 µM (active)

SMILES: Cc1c(C(=O)N2CCOCC2)[nH]c2c1C(=O)CC(c1ccccc1Cl)C2 (stereo not given)
- IC50 [18]: > 80 µM (inactive)

SMILES: CCCOc1ccc(F)cc1-c1cc(C(=O)Nc2cc(OC)c(OC)c(OC)c2)[nH]n1
- AC50 [19]: > 52 µM (inactive)
- AC50 [20]: > 52 µM (inactive)
- AC50 [21]: 24 µM (active)
- AC50 [22]: 31.2 µM (active)

SMILES: O=C(Nc1ccc(C(F)(F)F)cc1)c1cc(-c2cccnc2)nc2ccc(Br)cc12
- CC50 [23]: > 40 µM (active)

SMILES: CCN(CC)CCCN(C(=O)c1cccc(C)c1)c1nc(-c2ccc(OC)cc2)cs1
- AC50 [10]: 17.2 µM (active)

SMILES: O=C1NC(=O)N(c2ccc3c(c2)OCO3)C(=O)/C1=C\c1ccc(-c2ccccc2C(=O)O)o1
- IC50 [24]: 3.9 µM (active)
- IC50 (Genome polyprotein): > 100 µM (active)
- IC50 [25]: 75.4 µM (active)

SMILES: COc1ccccc1S(=O)(=O)N[C@H]1CC[C@@H](CC(=O)N2CCN(C)CC2)O[C@H]1CO
- AC50 [26]: 0.992 µM (active)
- AC50 [27]: 29.1 µM (active)

SMILES: COc1ccc(S(=O)(=O)N[C@@H]2C=C[C@H](CC(=O)N3CCC(Cc4ccccc4)CC3)O[C@@H]2CO)cc1
- AC50 [26]: 19 µM (active)
- AC50 [27]: 32.6 µM (active)

SMILES: COc1cc(CC(=O)OCC(=O)c2ccc3c(c2)OCCO3)cc(OC)c1OC
- EC50 (BJ [1]): 15.1 µM (active)
- EC50 [9]: 5.8 µM (inconclusive)
- EC50 (BJ [3]): 2.14 µM (active)
- IC50 [18]: > 80 µM (inactive)
- EC50 [14]: 5.66 µM (active)
- EC50 [4]: 2.47 µM (active)
- EC50 [16]: 4.99 µM (inconclusive)
- EC50 (BJ [5]): 1.62 µM (inconclusive)

SMILES: Cc1cc(C)c2nc(N3C(=O)C(O)=C(C(=O)c4ccco4)C3c3ccc(O)cc3)sc2c1 (stereo not given)
- IC50 (Genome polyprotein): 30.4 µM (active)

SMILES: CCCCNC(=O)c1onc(CSc2cccc3ccccc23)c1C(=O)O
- IC50 (Genome polyprotein): 49.6 µM (active)
